The NIST ThermoML archive (doi:10.1007/s10765-011-0989-8)
± gives the expanded uncertainty stated by the source.

Details: 101 kPa, Liquid; for viscosity: Capillary tube (Ostwald / Ubbelohde) method; for mass density: Pycnometric method

CO [methanol]
Details | mass density [kg/m3] | viscosity [mPa·s]
293.15 K | 791 ± 1 | 0.595 ± 0.025
298.15 K | 786.4 ± 1 | 0.552 ± 0.023
303.15 K | 781.8 ± 1 | 0.514 ± 0.021
308.15 K | 777.2 ± 1 | 0.478 ± 0.02
313.15 K | 771.8 ± 1 | 0.449 ± 0.019
323.15 K | 762.3 ± 1 | 0.394 ± 0.016
333.15 K | 752.4 ± 1 | 0.349 ± 0.015
